Patent publication US20250206708A1, “AN OXAZIRIDINE PLATFORM FOR TARGETING FUNCTIONAL ALLOSTERIC METHIONINE SITES” (Novartis AG, priority 2022, published 2025)

How the values were obtained:
[1] = biological target: CDK1 (Homo sapiens, UniProt P06493); experiment: Shotgun proteomics (MS/MS) modification of purified CDK1; type: binding; conditions: shotgun proteomics on purified protein
[2] = biological target: CDK4 (Homo sapiens, UniProt P11802); experiment: ADP-Glo luciferase-based in vitro activity assay on purified CDK4; type: biochemical; conditions: Rb (aa 773-928) substrate, read-out: IC50, inhibition of activity of purified CDK4 protein
Sequence of CDK4 (Homo sapiens, UniProt P11802) (P11802 whole entry, the tested form may be a part): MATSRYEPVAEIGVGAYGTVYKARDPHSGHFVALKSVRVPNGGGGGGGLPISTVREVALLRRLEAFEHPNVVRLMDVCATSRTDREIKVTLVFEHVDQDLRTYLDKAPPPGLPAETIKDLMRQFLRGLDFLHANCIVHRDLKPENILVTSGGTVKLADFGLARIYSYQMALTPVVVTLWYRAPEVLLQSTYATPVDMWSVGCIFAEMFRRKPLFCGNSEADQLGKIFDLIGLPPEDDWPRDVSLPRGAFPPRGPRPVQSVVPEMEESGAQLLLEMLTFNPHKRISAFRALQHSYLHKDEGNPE
Sequence of CDK4 (Homo sapiens, UniProt P11802) (P24385 whole entry partner, the tested form may be a part): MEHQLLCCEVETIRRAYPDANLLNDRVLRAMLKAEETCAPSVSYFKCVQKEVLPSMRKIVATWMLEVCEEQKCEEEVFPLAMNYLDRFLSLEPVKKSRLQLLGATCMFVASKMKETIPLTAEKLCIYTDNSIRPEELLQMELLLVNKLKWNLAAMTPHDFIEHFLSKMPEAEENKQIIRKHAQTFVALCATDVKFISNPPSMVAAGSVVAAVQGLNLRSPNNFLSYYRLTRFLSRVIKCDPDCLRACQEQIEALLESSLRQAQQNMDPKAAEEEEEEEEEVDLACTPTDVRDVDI
Description: Effects of Compound 148 on in vitro activity of CDK4 were determined via commercially available ADP-Glo assay (Promega; cat no.V6930). Isolated CDK4 was provided by Novartis. Retinoblastoma protein (aa 773-928) was obtained from commercial sources (Millipore Sigma; 12-439). The assay kit protocol was followed as directed, with the addition of a quench step (addition of 1 μL of 25 μM N-Acetyl methionine) after incubation of protein with oxaziridine ligand.

[3] = system: CDK4; experiment: Competition and pulldown of Compound 300/Compound 148 in CDK4-overexpressing MCF-7 lysate; type: binding, human; conditions: varying Compound 148 prior to 500 μM Compound 300, CDK4 overexpression
Description: MCF-7 cells were grown to 40% confluency in 3 mL DMEM media (Gibco) containing 10% (v/v) FBS in a 6-well chamber at 37° C., 5% CO2. Transfection was then performed as per Lipofectamine 2000 protocol (Invitrogen). Briefly, 0 or 2.5 μg of pcDNA3.1(+)-FLAG-TEV-CDK4 expression construct was introduced at 0:0, 2:1 and 3:1 transfection reagent:DNA. The lipid-DNA complex was incubated for 30 mins at 23° C. in Opti-MEM media (Gibco). Then, 250 μL complex was added to 2.75 mL DMEM containing no FBS. 3 mL DMEM+DNA was added to each well, while control wells received DMEM only. Cells were incubated for 6H at 37° C., 5% CO2. The media was then aspirated, and cells were given 3 mL DMEM+10% FBS and left to incubate for an additional 30H at 37° C., 5% CO2. Cells were washed 3× in 500 μL ice-cold PBS then harvested by scraping in 200 μL ice-cold PBS+1% Triton X-100 containing EDTA-free protease inhibitors (Roche). Cells were lysed at 4° C. for 30 mins while rocking. Lysate was clarified by centrifugation at 10,000×g at 4° C. for 15 mins. The supernatant was then transferred to a fresh prechilled 1.5 mL microcentrifuge tube. Protein concentration was normalized to 2.0 mg/mL via BCA assay (Pierce; cat no. 23225). […] CDK4 expression was quantified by densitometry (ImageJ) and normalized to the actin loading control. […]

[4] = system: CDK4; experiment: 2D gel electrophoresis western blot of CDK4 T172 phosphorylation in MCF-7; type: cell-based, human; conditions: MCF-7 cells, 2D SDS-PAGE, spot 3 normalized to spot 1
Description: Serum-synchronized MCF-7 cells were treated with compound according to method outlined. Cells were monitored by eye for cell death and harvested once high-dose cells were round but not detached, about 2 hours. Media was removed and cells washed with HBSS. Trypsin was added to detach cells. Cells were transferred to a falcon tube containing 7 mL of complete DMEM and centrifuged at 1200 rpm for 2 min. Supernatant discarded and pellet gently resuspended in 1 mL PBS and transferred to an Eppendorf tube. Sample was spun once more, after which the pellet was quickly rinsed with ice cold MQ and spun a final time. Pellet was aspirated, flash frozen with LN2, and stored at −80° C.
SCell pellets were solubilized in cold 30 mM Tris buffer pH 8.5 containing 7 M urea, 2 M thiourea and 4% CHAPS with continuous vortexing until unfrozen and then kept agitated for 20 min. After centrifugation at 15,700 g for 10 min at 4° C., proteins were quantified. An equal volume of 2-D-sample buffer (7 M urea, 2 M thiourea, 2% CHAPS, 0.4% 3-10 Pharmalytes, and 0.4% DTT) was added to samples normalized to 150 μg proteins. […] The proteins were detected using Western Lightning Plus ECL (Perkin Elmer) and viewed in Fusion FX gel documentation system using the Solo7S camera (Vilber Lourmat, France).

Sequence of CDK1 (P06493 whole entry, the tested form may be a part): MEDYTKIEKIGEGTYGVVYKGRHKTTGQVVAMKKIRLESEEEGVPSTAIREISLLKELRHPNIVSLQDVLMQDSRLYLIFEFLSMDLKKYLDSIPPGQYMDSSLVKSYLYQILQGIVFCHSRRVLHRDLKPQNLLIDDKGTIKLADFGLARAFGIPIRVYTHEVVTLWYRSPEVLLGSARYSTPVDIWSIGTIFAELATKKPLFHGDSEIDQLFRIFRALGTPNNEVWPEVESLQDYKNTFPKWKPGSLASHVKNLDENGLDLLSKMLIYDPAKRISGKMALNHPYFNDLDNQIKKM

modifications on CDK1 [1]: No modifications
IC50 [2]: ~200 nM
SMILES: O=C(N1CC2COCC2C1)N1OC1c1ccccc1 (stereo not shown) [Compound 148]
CDK4 signal in eluted proteins after pulldown (competition with Compound 300) [3]: dose-dependent decrease in signal in eluted proteins
T172 phosphorylation status on CDK4 [4]: diminish T172 phosphorylation status on CDK4 in MCF-7 cells in a dose-dependent manner
